In patent publication US20130131029A1, “ANTISOLVENT SOLIDIFICATION PROCESS” (MSD Oss B.V., priority 2005, published 2013):

Experiments:
[1] = Crystal size distribution (CSD) by laser diffraction (Mastersizer 2000, Fraunhofer model); assay type: physicochemical
[2] = as above; assay type: physicochemical; remark: listed apart in the source
Excerpt: The solid, preferably crystalline, particles obtainable by a process as described above advantageously have a high purity and, furthermore, a narrow particle size range, such as were not obtainable by prior art processes. The span, defined as (d90-d10)/d50, wherein d50, d10, and d90 can be understood to mean that 50%, 10%, and 90%, respectively, of the particles having a particle size smaller than or equal to the indicated value as determined by conventional laser diffraction technique, can even be below 1.4, which is exceptional for a solidification process such as a crystallisation process. In general, for the process according to the present invention the span preferably is below 3. More preferably, the span is below 2.5, and most preferably below 2.
The following procedure was applied for the production of sodium chloride crystals using the antisolvent crystallisation process according to the present invention. All experiments were performed at ambient conditions. The resulting crystals were analysed by SEM (Scanning Electron Microscopy) and CSD (Crystal Size Distribution) measurements by means of laser diffraction using a Mastersizer 2000 apparatus of Malvern Instruments with a Fraunhofer model for data analysis.
The following procedure was applied for the production of 3-ketodesogestrel using the antisolvent crystallisation of the present invention. All experiments were performed at ambient conditions. The resulting crystals were analysed using CSD measurements that were measured via conventional laser diffraction technique.
A 3-ketodesogestrel solution was prepared of 97 g 3-ketodesogestrel in 5 l of ethanol. Water was used as antisolvent. For dosing, a Microdyn® type SE020TP1N membrane with an average pore size of 1 μm was used. The 3-ketodesogestrel solution was dosed from the outside of the membrane to the antisolvent on the inside of the membrane. The speed of the antisolvent was set to 45 l/hr. The speed of the 3-ketodesogestrel flow was set to 0.41 l/hr. Again, a gear pump was used to control the velocities. The crystals thus obtained were collected using filtration, washed with 100% ethanol, and subsequently dried in an oven. […] The span was determined to be 1.7. Herein d50, d10; and d90 can be understood to mean that 50%, 10%, and 90%, respectively, of the particles have a particle size smaller than or equal to the indicated value.
The following procedure was applied for the production of progesteron. All experiments were performed at ambient conditions. The resulting crystals were analysed by CSD measurements by means of laser diffraction using a Mastersizer 2000 apparatus of Malvern Instruments with a Fraunhofer model for data analysis.

[3] = Entry 1, antisolvent flow 45 l/h, 3-ketodesogestrel flow 0.7 l/h, Microdyn membrane pore size 1 μm
[4] = Entry 2, antisolvent flow 45 l/h, 3-ketodesogestrel flow 0.4 l/h, Microdyn membrane pore size 1 μm
[5] = Entry 3, antisolvent flow 45 l/h, 3-ketodesogestrel flow 6.2 l/h, Microdyn membrane pore size 1 μm
[6] = Entry 4, antisolvent flow 90 l/h, 3-ketodesogestrel flow 0.7 l/h, Microdyn membrane pore size 1 μm
[7] = Entry 5, antisolvent flow 90 l/h, 3-ketodesogestrel flow 5.0 l/h, Microdyn membrane pore size 1 μm
[8] = Entry 6, antisolvent flow 45 l/h, 3-ketodesogestrel flow 10 l/h, Microdyn membrane pore size 1 μm
[9] = Entry 7, antisolvent flow 45 l/h, 3-ketodesogestrel flow 42 l/h, Microdyn membrane pore size 1 μm
[10] = Entry 8, antisolvent flow 45 l/h, 3-ketodesogestrel flow 20 l/h, Microdyn membrane pore size 1 μm
[11] = Example 2, 97 g in 5 l ethanol, flow 0.41 l/hr, water antisolvent 45 l/hr, Microdyn membrane 1 μm
[12] = Entry 1, antisolvent 100 wt % water, 0 wt % ethanol, 45 l/h, progesteron solution 50 g per litre ethanol, 12 l/h, Microdyn membrane 1 μm
[13] = Entry 2, antisolvent 85 wt % water, 15 wt % ethanol, 45 l/h, progesteron solution 50 g per litre ethanol, 12 l/h, Microdyn membrane 1 μm
[14] = Entry 3, antisolvent 70 wt % water, 30 wt % ethanol, 45 l/h, progesteron solution 50 g per litre ethanol, 12 l/h, Microdyn membrane 1 μm
[15] = Example 1, 25 wt % NaCl solution 60 l/hr into ethanol antisolvent 50 l/hr, SPG membrane pore-size 1.1 μm
[16] = Example 5, 34 mg tibolone in 1 kg ethanol, 65 l/hr, antisolvent 90 wt % water/10 wt % ethanol, 151/hr, SPG membrane 1.1 μm

`C#C[C@]1(O)CC[C@H]2[C@@H]3CCC4=CC(=O)CC[C@@H]4[C@H]3C(=C)C[C@@]21CC` [3-ketodesogestrel, (17alfa)-17-hydroxy-13-ethyl-11-methylene-18,19-dinorpregn-4-en-20-yn-3-one] showed a Span [1, 3] of 1.6, a d10 [1, 3] of 3 µm and a d50 [1, 3] of 11 µm. The d90 [1, 3] was 21 µm, the Span [1, 4] was 1.7 and the d10 [1, 4] was 3 µm. It also gave a d90 [1, 4] of 20 µm, a Span [1, 5] of 2.5 and a d10 [1, 5] of 5 µm. For the same molecule, the d50 [1, 5] was 16 µm, the d90 [1, 5] was 45 µm and the Span [1, 6] was 1.9. For the same molecule, the d10 [1, 6] was 4 µm, the d50 [1, 6] was 10 µm and the d90 [1, 6] was 23 µm. The Span [1, 7] was 2.9, the d10 [1, 7] was 2 µm and the d50 [1, 7] was 7 µm. The d90 [1, 7] was 22 µm, the Span [1, 8] was 2.8 and the d10 [1, 8] was 2 µm. It also gave a d50 [1, 8] of 8 µm, a d90 [1, 8] of 24 µm and a Span [1, 9] of 1.9. It also gave a d10 [1, 9] of 12 µm, a d50 [1, 9] of 42 µm and a d90 [1, 9] of 90 µm. For the same molecule, the Span [1, 10] was 3, the d10 [1, 10] was 2 µm and the d50 [1, 10] was 9 µm. The d90 [1, 10] was 29 µm, the d90 [1, 11] was 20 μm and the d50 [2, 4] was 10 µm. The Span [2, 11] was 1.7, the d10 [2, 11] was 3 μm and the d50 [2, 11] was 10 μm.

For `CC(=O)[C@H]1CC[C@H]2[C@@H]3CCC4=CC(=O)CC[C@]4(C)[C@H]3CC[C@]12C` [progesteron, pregn-4-ene-3,20-dione], the Span [1, 12] was 2, the “d10” value [1, 12] was 2 and the “d50” value [1, 12] was 7. For the same molecule, the Span [1, 13] was 1.8, the “d50” value [1, 13] was 12 and the “d10” value [1, 14] was 7. The “d50” value [1, 14] was 21, the “d90” value [1, 14] was 43 and the “d90” value [2, 12] was 16. For the same molecule, the “d10” value [2, 13] was 4, the “d90” value [2, 13] was 25 and the Span [2, 14] was 1.7. For the same molecule, the “span, in words” value ([2]; all antisolvent compositions of Table 2) was “surprisingly small span”.

In the case of `[Cl-].[Na+]` [sodium chloride], the Span [1, 15] is reported as 1.5, the “average crystal size d50” value [2, 15] is reported as 40 μm and the Span ([2]; Example 1 additional experiment, stirring rod 630 rpm inside membrane, salt solution 40 l/hr, ethanol 50 l/hr) is reported as 1.2.

Molecule `C#CC1(O)CCC2C3C(CCC21C)C1=C(CC(=O)CC1)C[C@H]3C` (stereo partly shown) [tibolone, (7alfa, 17alfa)-17-hydroxy-7-methyl-19-nor-pregn-5(10)-en-20-yn-3-one] has a d10 [1, 16] of 3.8 μm, a d50 [1, 16] of 18.2 μm and a d90 [2, 16] of 51.3 μm.
